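Exposure lasted 48 hours, with cells grown in 96-well plates and compounds tested at five concentrations. TGI marks complete inhibition of growth.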
test system: SNB-78 CNS; assay: NCI-60 cell line screen, 48 h

SMILES	TGI [µM]
O=[N+]([O-])c1cccc(C2=NOC(C3CCCCC3)C2)c1 (centres undefined)	> 100
Cc1ccc(C)c(N2C/C(=N\NC(=O)CC#N)C(c3nc4ccccc4s3)C(=O)C2=O)c1 (centres undefined)	> 100
CCOCN1COCN(C)C1=O	> 100
O=C1Sc2ccccc2C(=O)N2CSCC12 (centres undefined)	> 100
O=C(CN(c1ccccc1)c1ccccc1)N1c2ccccc2C2C=CC=CC21 (centres undefined)	> 58.7

test system: RXF 393 renal; assay: NCI-60 cell line screen, 48 h

SMILES	TGI [µM]
CC(C)CCC[C@@H](C)C1CCC2[C@@H]3CC=C4C[C@@H](C(=O)NCCN(C)C)CC[C@]4(C)C3CC[C@@]21C (some centres undefined)	> 100
CN(C(=O)c1ccc([N+](=O)[O-])cc1)c1ccccc1	> 100
Cc1ccc(C)c(N2C/C(=N\NC(=O)CC#N)C(c3nc4ccccc4s3)C(=O)C2=O)c1 (centres undefined)	> 100
O=C1Sc2ccccc2C(=O)N2CSCC12 (centres undefined)	> 100
O=C(CN(c1ccccc1)c1ccccc1)N1c2ccccc2C2C=CC=CC21 (centres undefined)	> 54.7

test system: M19-MEL melanoma; assay: NCI-60 cell line screen, 48 h

SMILES	TGI [µM]
CC(C)CCC[C@@H](C)C1CCC2[C@@H]3CC=C4C[C@@H](C(=O)NCCN(C)C)CC[C@]4(C)C3CC[C@@]21C (some centres undefined)	39.7
CN(C(=O)c1ccc([N+](=O)[O-])cc1)c1ccccc1	> 100
O=[N+]([O-])c1cccc(C2=NOC(C3CCCCC3)C2)c1 (centres undefined)	> 100
Cc1ccc(C)c(N2C/C(=N\NC(=O)CC#N)C(c3nc4ccccc4s3)C(=O)C2=O)c1 (centres undefined)	> 100
CCOCN1COCN(C)C1=O	> 100
O=C1Sc2ccccc2C(=O)N2CSCC12 (centres undefined)	> 100
O=C(CN(c1ccccc1)c1ccccc1)N1c2ccccc2C2C=CC=CC21 (centres undefined)	> 57.4

test system: SN12C renal; assay: NCI-60 cell line screen, 48 h

SMILES	TGI [µM]
CC(C)CCC[C@@H](C)C1CCC2[C@@H]3CC=C4C[C@@H](C(=O)NCCN(C)C)CC[C@]4(C)C3CC[C@@]21C (some centres undefined)	46.7
CN(C(=O)c1ccc([N+](=O)[O-])cc1)c1ccccc1	> 100
O=[N+]([O-])c1cccc(C2=NOC(C3CCCCC3)C2)c1 (centres undefined)	> 100
Cc1ccc(C)c(N2C/C(=N\NC(=O)CC#N)C(c3nc4ccccc4s3)C(=O)C2=O)c1 (centres undefined)	> 100
CCOCN1COCN(C)C1=O	> 100
O=C1Sc2ccccc2C(=O)N2CSCC12 (centres undefined)	> 100
O=C(CN(c1ccccc1)c1ccccc1)N1c2ccccc2C2C=CC=CC21 (centres undefined)	34.4

test system: SF-268 CNS; assay: NCI-60 cell line screen, 48 h

SMILES	TGI [µM]
CC(C)CCC[C@@H](C)C1CCC2[C@@H]3CC=C4C[C@@H](C(=O)NCCN(C)C)CC[C@]4(C)C3CC[C@@]21C (some centres undefined)	> 100
CN(C(=O)c1ccc([N+](=O)[O-])cc1)c1ccccc1	> 100
O=[N+]([O-])c1cccc(C2=NOC(C3CCCCC3)C2)c1 (centres undefined)	> 100
Cc1ccc(C)c(N2C/C(=N\NC(=O)CC#N)C(c3nc4ccccc4s3)C(=O)C2=O)c1 (centres undefined)	> 100
CCOCN1COCN(C)C1=O	> 100
O=C1Sc2ccccc2C(=O)N2CSCC12 (centres undefined)	> 100
O=C(CN(c1ccccc1)c1ccccc1)N1c2ccccc2C2C=CC=CC21 (centres undefined)	> 57

test system: 786-0 renal; assay: NCI-60 cell line screen, 48 h

SMILES	TGI [µM]
CC(C)CCC[C@@H](C)C1CCC2[C@@H]3CC=C4C[C@@H](C(=O)NCCN(C)C)CC[C@]4(C)C3CC[C@@]21C (some centres undefined)	43.2
CN(C(=O)c1ccc([N+](=O)[O-])cc1)c1ccccc1	> 100
O=[N+]([O-])c1cccc(C2=NOC(C3CCCCC3)C2)c1 (centres undefined)	> 100
Cc1ccc(C)c(N2C/C(=N\NC(=O)CC#N)C(c3nc4ccccc4s3)C(=O)C2=O)c1 (centres undefined)	> 100
CCOCN1COCN(C)C1=O	> 100
O=C1Sc2ccccc2C(=O)N2CSCC12 (centres undefined)	> 100
O=C(CN(c1ccccc1)c1ccccc1)N1c2ccccc2C2C=CC=CC21 (centres undefined)	56.3

test system: SNB-75 CNS; assay: NCI-60 cell line screen, 48 h

SMILES	TGI [µM]
CC(C)CCC[C@@H](C)C1CCC2[C@@H]3CC=C4C[C@@H](C(=O)NCCN(C)C)CC[C@]4(C)C3CC[C@@]21C (some centres undefined)	> 100
CN(C(=O)c1ccc([N+](=O)[O-])cc1)c1ccccc1	> 100
O=[N+]([O-])c1cccc(C2=NOC(C3CCCCC3)C2)c1 (centres undefined)	> 100
Cc1ccc(C)c(N2C/C(=N\NC(=O)CC#N)C(c3nc4ccccc4s3)C(=O)C2=O)c1 (centres undefined)	> 100
CCOCN1COCN(C)C1=O	> 100
O=C1Sc2ccccc2C(=O)N2CSCC12 (centres undefined)	> 100
O=C(CN(c1ccccc1)c1ccccc1)N1c2ccccc2C2C=CC=CC21 (centres undefined)	52.3

test system: KM12 colon; assay: NCI-60 cell line screen, 48 h

SMILES	TGI [µM]
CC(C)CCC[C@@H](C)C1CCC2[C@@H]3CC=C4C[C@@H](C(=O)NCCN(C)C)CC[C@]4(C)C3CC[C@@]21C (some centres undefined)	28.2
CN(C(=O)c1ccc([N+](=O)[O-])cc1)c1ccccc1	> 100
O=[N+]([O-])c1cccc(C2=NOC(C3CCCCC3)C2)c1 (centres undefined)	> 100
Cc1ccc(C)c(N2C/C(=N\NC(=O)CC#N)C(c3nc4ccccc4s3)C(=O)C2=O)c1 (centres undefined)	> 100
CCOCN1COCN(C)C1=O	> 100
O=C1Sc2ccccc2C(=O)N2CSCC12 (centres undefined)	> 100
O=C(CN(c1ccccc1)c1ccccc1)N1c2ccccc2C2C=CC=CC21 (centres undefined)	96.8

test system: LXFL 529 NSCLC; assay: NCI-60 cell line screen, 48 h

SMILES	TGI [µM]
CC(C)CCC[C@@H](C)C1CCC2[C@@H]3CC=C4C[C@@H](C(=O)NCCN(C)C)CC[C@]4(C)C3CC[C@@]21C (some centres undefined)	> 100
CN(C(=O)c1ccc([N+](=O)[O-])cc1)c1ccccc1	> 100
O=[N+]([O-])c1cccc(C2=NOC(C3CCCCC3)C2)c1 (centres undefined)	> 100
Cc1ccc(C)c(N2C/C(=N\NC(=O)CC#N)C(c3nc4ccccc4s3)C(=O)C2=O)c1 (centres undefined)	> 100
O=C1Sc2ccccc2C(=O)N2CSCC12 (centres undefined)	> 100
O=C(CN(c1ccccc1)c1ccccc1)N1c2ccccc2C2C=CC=CC21 (centres undefined)	34.6

test system: NCI-H226 lung; assay: NCI-60 cell line screen, 48 h

SMILES	TGI [µM]
CC(C)CCC[C@@H](C)C1CCC2[C@@H]3CC=C4C[C@@H](C(=O)NCCN(C)C)CC[C@]4(C)C3CC[C@@]21C (some centres undefined)	51.4
CN(C(=O)c1ccc([N+](=O)[O-])cc1)c1ccccc1	> 100
O=[N+]([O-])c1cccc(C2=NOC(C3CCCCC3)C2)c1 (centres undefined)	> 100
Cc1ccc(C)c(N2C/C(=N\NC(=O)CC#N)C(c3nc4ccccc4s3)C(=O)C2=O)c1 (centres undefined)	> 100
CCOCN1COCN(C)C1=O	> 100
O=C1Sc2ccccc2C(=O)N2CSCC12 (centres undefined)	> 100
O=C(CN(c1ccccc1)c1ccccc1)N1c2ccccc2C2C=CC=CC21 (centres undefined)	44.6

test system: HT29 colon; assay: NCI-60 cell line screen, 48 h

SMILES	TGI [µM]
CC(C)CCC[C@@H](C)C1CCC2[C@@H]3CC=C4C[C@@H](C(=O)NCCN(C)C)CC[C@]4(C)C3CC[C@@]21C (some centres undefined)	> 100
CN(C(=O)c1ccc([N+](=O)[O-])cc1)c1ccccc1	> 100
O=[N+]([O-])c1cccc(C2=NOC(C3CCCCC3)C2)c1 (centres undefined)	> 100
Cc1ccc(C)c(N2C/C(=N\NC(=O)CC#N)C(c3nc4ccccc4s3)C(=O)C2=O)c1 (centres undefined)	> 100
CCOCN1COCN(C)C1=O	> 100
O=C1Sc2ccccc2C(=O)N2CSCC12 (centres undefined)	> 100
O=C(CN(c1ccccc1)c1ccccc1)N1c2ccccc2C2C=CC=CC21 (centres undefined)	> 56.5

test system: ACHN renal; assay: NCI-60 cell line screen, 48 h

SMILES	TGI [µM]
CC(C)CCC[C@@H](C)C1CCC2[C@@H]3CC=C4C[C@@H](C(=O)NCCN(C)C)CC[C@]4(C)C3CC[C@@]21C (some centres undefined)	> 100
CN(C(=O)c1ccc([N+](=O)[O-])cc1)c1ccccc1	> 100
O=[N+]([O-])c1cccc(C2=NOC(C3CCCCC3)C2)c1 (centres undefined)	> 100
Cc1ccc(C)c(N2C/C(=N\NC(=O)CC#N)C(c3nc4ccccc4s3)C(=O)C2=O)c1 (centres undefined)	> 100
CCOCN1COCN(C)C1=O	> 100
O=C1Sc2ccccc2C(=O)N2CSCC12 (centres undefined)	> 100
O=C(CN(c1ccccc1)c1ccccc1)N1c2ccccc2C2C=CC=CC21 (centres undefined)	> 59.1

test system: DLD-1 colon; assay: NCI-60 cell line screen, 48 h

SMILES	TGI [µM]
CC(C)CCC[C@@H](C)C1CCC2[C@@H]3CC=C4C[C@@H](C(=O)NCCN(C)C)CC[C@]4(C)C3CC[C@@]21C (some centres undefined)	> 100
CN(C(=O)c1ccc([N+](=O)[O-])cc1)c1ccccc1	> 100
O=[N+]([O-])c1cccc(C2=NOC(C3CCCCC3)C2)c1 (centres undefined)	> 100
Cc1ccc(C)c(N2C/C(=N\NC(=O)CC#N)C(c3nc4ccccc4s3)C(=O)C2=O)c1 (centres undefined)	> 100
CCOCN1COCN(C)C1=O	> 100
O=C1Sc2ccccc2C(=O)N2CSCC12 (centres undefined)	> 100
O=C(CN(c1ccccc1)c1ccccc1)N1c2ccccc2C2C=CC=CC21 (centres undefined)	> 57.5

test system: NCI-H460 lung; assay: NCI-60 cell line screen, 48 h

SMILES	TGI [µM]
CC(C)CCC[C@@H](C)C1CCC2[C@@H]3CC=C4C[C@@H](C(=O)NCCN(C)C)CC[C@]4(C)C3CC[C@@]21C (some centres undefined)	> 100
CN(C(=O)c1ccc([N+](=O)[O-])cc1)c1ccccc1	> 100
O=[N+]([O-])c1cccc(C2=NOC(C3CCCCC3)C2)c1 (centres undefined)	> 100
Cc1ccc(C)c(N2C/C(=N\NC(=O)CC#N)C(c3nc4ccccc4s3)C(=O)C2=O)c1 (centres undefined)	> 100
CCOCN1COCN(C)C1=O	> 100
O=C1Sc2ccccc2C(=O)N2CSCC12 (centres undefined)	> 100
O=C(CN(c1ccccc1)c1ccccc1)N1c2ccccc2C2C=CC=CC21 (centres undefined)	36.1

test system: HCT-116 colon; assay: NCI-60 cell line screen, 48 h

SMILES	TGI [µM]
CN(C(=O)c1ccc([N+](=O)[O-])cc1)c1ccccc1	> 100

— PubChem BioAssay (NCI)
